Laboratory results as given in patent publication US9872912B2, “Method for treating pancreatic cancer” (CHINA MEDICAL UNIVERSITY, priority 2014, dated 2018).
Where “and” joins values, the source holds several entries; their conditions need not be identical. Equal values may be shown once.

Columns and labels:
Nurr1 RNA in PACA-2 = test: Micro RNA interference test, RT-PCR of Nurr1 RNA in PACA-2; type: cell-based, human; details: PACA-2, 133 μM Z-BP
Method: The RNA expression of Nurr1 in the human pancreatic cancer cell line, PACA-2, was inhibited by Micro RNA interference technology. The cells were treated with 133 μM Z-BP. Then, the cells were analyzed by RT-PCR to detect the changes in the expression of Nurr1 RNA in the cells. As the results shown in FIG. 7A, when PACA-2 cells were treated with 50 nM Nurr1 micro RNA, about 50% of the Nurr1 induced by Z-BP was inhibited.

[1] = tested on: Nur77 gene pathway-related and apoptosis-related proteins in PACA-2; test: Western blotting of Nur77 pathway-related and apoptosis-related proteins in PACA-2; type: cell-based, Human
Method: Human pancreatic cancer cell line, PACA-2, […], and then the expression levels of the Nur77 gene involved pathway-related proteins were analyzed by Western blotting, including Pan-PKC, AKT, ERK, and JNK (FIG. 8A). In addition, the expression levels of apoptosis-related proteins were also analyzed, including poly(ADP-ribose) polymerase (PARP), cleaved poly(ADP-ribose) polymerase (cPARP), caspase-3 (FIG. 8B). β-actin was used as the control group.

[2] = tested on: gene expression levels of NOR-1, Nurr1, and Nur77 in PACA-2; test: RT-PCR of apoptosis-related gene expression, PACA-2; type: cell-based, Human
Method: (§1) In this experiment, pancreatic cancer cell lines, PANC-1 and PACA-2, were treated with 100 μg/ml Z-BP for 0, 1, 3, 6, or 24 hours, and then, analyzed by reverse transcriptase-polymerase chain reaction (RT-PCR) (FIG. 6A) to analyze the effects of Z-BP on the gene expression levels of NOR-1, Nurr1, and Nur77 in the pancreatic cancer cell line. In addition, pancreatic cancer cell lines, PANC-1 and PACA-2, were treated with different concentrations of Z-BP for 3 hours, and then, analyzed by RT-PCR (FIG. 6B). The Glyceraldehyde 3-phosphate dehydrogenase (GAPDH) was used as the control group.

[3] = tested on: gene expression levels of NOR-1, Nurr1, and Nur77 in PANC-1; test: RT-PCR of apoptosis-related gene expression, PANC-1; type: cell-based, Human
Method: as §1

PACA-2 [4] = test: MTT cell survival rate, PACA-2; type: cell-based; details: Homo sapiens, PACA-2, 24 hours, read-out: IC50 (concentration of 50% inhibition)
Method: (§2) MTT (3-[4,5-dimethylthiahiazo-2-yl]-2,4-dipheny-tetrazolium bromide) was used to determine if the cell survival rate of different pancreatic cancer cell lines will be influenced when being treated with (Z)-butylidenephthalide. Human pancreatic cancer cell lines (3×10^3 cells/well), PANC-1 and PACA-2, were cultured in a 96-well micro-culture plate over night. Different concentrations of (Z)-butylidenephthalide (0 μg/ml, 10 μg/ml, 25 μg/ml, 50 μg/ml, 75 μg/ml, or 100 μg/ml) or (E)-butylidenephthalide (0 μg/ml, 50 μg/ml, 100 μg/ml, 200 μg/ml, 400 μg/ml, or 800 μg/ml), or 50 μM gemcitabine (a traditional medicine for treating pancreatic cancer, as a control group) were added into each well of the 96-well micro-culture plate along the inner wall, and cultured for 24 hours. The medium was removed, and then a medium containing 500 μg/ml MTT (200 μl) was added and cultured for 4 hours. The medium was removed, and then 200 μl of DMSO was added into the plate. The absorbance of the sample in each well was measured by a spectrophotometer at 570 nm wavelength. The data was calculated to determine the survival rate and IC50 (concentration of 50% inhibition) of each pancreatic cancer cell line treated with (Z)-butylidenephthalide and (E)-butylidenephthalide. The results are shown in FIG. 1A ((E)-butylidenephthalide) and FIG. 1B ((Z)-butylidenephthalide).

PANC-1 = test: MTT cell survival rate, PANC-1; type: cell-based; details: Homo sapiens, PANC-1, 24 hours, read-out: IC50 (concentration of 50% inhibition)
Method: as §2

PACA-2 [5] = test: Micro RNA interference test, cellular survival rate of PACA-2; type: cell-based, human; details: PACA-2, 133 μM Z-BP
Method: Human pancreatic cancer cell lines, PACA-2, was cultured with p(CPP-SA)-Z-BP comprising 0 w % (as a control group), 17.5 w %, or 25 w % (Z)-butylidenephthalide, respectively, for 24 hours, and then the tumor cell morphology and cellular survival rate were observed.
In addition, the human pancreatic cancer cell line, PACA-2, was treated with 10 nM or 50 nM of Nurr1 micro RNA, and then treated with 133 μM Z-BP. Then, the cellular survival rate was observed using the same method as described in Example 4.

[6] = PACA-2, Z-BP for 24 hours or 48 hours
[7] = PACA-2, 100 μg/ml Z-BP, 1 to 3 hours
[8] = PANC-1, 100 μg/ml Z-BP, 1 to 3 hours

SMILES | expression of Nurr1 (Nurr1 RNA in PACA-2) | expression level of phospho-AKT (Pi-AKT) ([1]; PACA-2, Z-BP for 180 minutes) | expression level of phospho-JNK (Pi-SAPK/JNK) ([1]; PACA-2, Z-BP for 180 minutes) | expression level of PARP [1, 6] | expression level of cPARP [1, 6] | expression level of caspase-3 [1, 6] | mRNA expression level of NOR-1 [2, 7] | mRNA expression level of Nurr1 [2, 7] | mRNA expression level of Nurr1 ([2]; PACA-2, different concentrations of Z-BP, 3 hours) | mRNA expression level of NOR-1 [3, 8] | mRNA expression level of Nurr1 [3, 8] | mRNA expression level of Nurr1 ([3]; PANC-1, different concentrations of Z-BP, 3 hours) | IC50 (PACA-2 [4]) | IC50 (PANC-1) | cellular survival rate of PACA-2 cells (PACA-2 [5])
CCC/C=C1\OC(=O)c2ccccc21 [(Z)-butylidenephthalide] | increase the expression of Nurr1 | increased | increased | increased | increased | increased | increased | increased | increased | increased | increased | increased | ~25 µg/mL and ~133 µM | ~45 µg/mL and ~234 µM | reduce the cellular survival rate
CCC/C=C1/OC(=O)c2ccccc21 [(E)-butylidenephthalide, reference compound] |  |  |  |  |  |  |  |  |  |  |  |  | ~162 µg/mL and ~864 µM | ~257 µg/mL and ~1.37 mM | 
